Measurements reported in publication PMC9902378, “Quinate-based ligands for irreversible inactivation of the bacterial virulence factor DHQ1 enzyme—A molecular insight” (Frontiers in Molecular Biosciences, 2023).

How the values were obtained:
[1] = test system: Salmonella enterica DHQ1 enzyme; settings: crystal structure PDB ID 4GUI, 1.78 Å; ref Light et al., 2014; cited from earlier work
St-DHQ1 [2] = biological target: T1, St-DHQ1 (Salmonella typhi, UniProt P24670); assay: MALDI mass spectrometry of enzyme incubated with ligand; type: binding; settings: for covalent modification of enzyme (MALDI): similar studies, incubation with ligand
T1 construct: made in house
T1 sequence (P24670 1-252): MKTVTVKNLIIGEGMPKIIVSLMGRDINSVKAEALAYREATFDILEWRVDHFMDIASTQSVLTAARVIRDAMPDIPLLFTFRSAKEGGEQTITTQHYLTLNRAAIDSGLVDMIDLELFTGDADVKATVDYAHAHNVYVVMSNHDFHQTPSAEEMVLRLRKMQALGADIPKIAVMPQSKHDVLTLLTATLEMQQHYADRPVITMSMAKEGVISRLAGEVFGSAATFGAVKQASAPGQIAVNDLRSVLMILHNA
Description: The covalent modification of DHQ1 by compound 6 was also corroborated by mass spectrometry analysis of samples incubated with and without ligand.
St-DHQ1 (3.1 µM from a stock protein concentration of 0.85 mg mL^−1) and Sa-DHQ1 (3.0 µM from a stock protein concentration of 4 mg mL^−1) was incubated with various aqueous solutions of ligands 6–8 in PPB (0.5 mL, 50 mM) at pH 7.2, 25°C. The activity was determined progressively over a 24 h period under the standard assay conditions using aliquots from the incubation samples and the control. The activity was measured at a substrate concentration of 14 µM. The initial rate of each assay was measured. The samples were concentrated and washed (5 mM ammonium carbonate) for MALDI analysis by centrifugation at 4 °C using Amicon® centrifugal filters (Amicon Ultra-10). The samples were freeze-dried, diluted with 5 mM ammonium bicarbonate (5 µL) and analyzed by mass spectrometry using a MALDI TOF/TOF Mass Spectrometer (4,800 Analyzer, AbSciex). The ProteoMass™ MALDI calibration kit (Merck) was employed for calibration and sanipic acid as a matrix. Spectra were analyzed using the Data Explorer™ Software. Experiments were performed in triplicate.
Figure S3. MALDI spectra of St-DHQ1 after incubation with 3-hydroxylaminoquinic acid (6) (left) and the control (right). Incubation conditions were potassium phosphate buffer (50 mM, pH 7.0), 25 °C and (1:120) protein/ligand ratio, 24 h. After incubation and for MALDI analysis, the samples were successively washed with 5 mM […] by centrifugation at 4 °C using Amicon® centrifugal filters and concentrated. Sinapic acid was used as a matrix.
(1 picture or pasted object on this page, not shown here)

St-DHQ1 [3] = biological target: T1, St-DHQ1; assay: Time-dependent irreversible inhibition assay (incubation of enzyme with ligand, residual activity at 234 nm); type: biochemical
Description: (§1) The inhibitory capacity of compounds 6–8 against DHQ1 enzymes from S. aureus and S. typhi was evaluated. For irreversible inhibition assays, the enzyme was incubated with the ligand and its remaining activity was progressively determined using aliquots from the incubation samples and the control. For reversible competitive inhibition assays, the activity of the enzyme in the presence of increasing amount of ligand was evaluated. The enzyme activity was determined by monitoring the increase in absorbance at 234 nm in the UV spectrum due to formation of the enone-carboxylate chromophore of the enzyme product, 3-dehydroshikimic acid 2).
(§2) The St-DHQ1 and Sa-DHQ1 enzyme were purified as described previously ([Moore et al., 1993]; [Nichols et al., 2004]). Concentrated solutions of St-DHQ1 (0.85 mg mL^−1, 30.74 µM) and Sa-DHQ1 (4 mg mL^−1, 148.13 µM) were stored in potassium phosphate buffer (PPB) (50 mM) and DTT (1 mM) at pH 6.6 and −80°C. When required for assays, aliquots of the enzyme stocks were diluted in water and buffer and stored on ice. DHQ1 was assayed in the forward direction by monitoring the increase in absorbance at 234 nm in the UV spectrum due to the absorbance for the enone-carboxylate chromophore of 3-dehydroshikimic acid (ε/M^−1 cm^−1 12 000). Standard assay conditions were PPB (50 mM, pH 7.2) at 25°C. Each assay was initiated by addition of the substrate. Solutions of 3-dehydroquinic acid 1) were calibrated by equilibration with DHQ1 and measurement of the change in the UV absorbance at 234 nm due to formation of the enone-carboxylate chromophore of 3-dehydroshikimic acid. […] The program GraFit 7.0.3. (Erithacus Software Ltd.). was used for data fitting.
(§3) Incubation of Sa-DHQ1 and St-DHQ1 (2.96 µM from a stock protein concentration of […]) with various aqueous solutions of compounds 6–8 (30–4,000 µM) was carried out in PPB (0.5 mL, 50 mM) at pH 7.2 at 25°C. The activity was determined progressively in duplicate over a 3 h period under the standard assay conditions (see above) using aliquots from the incubation samples and the control. Semilogarithmic plots of residual activity as a function of time with a range of inhibitor concentrations [I] were performed to obtain the first-order rate constant, k obs, calculated from the slope, and is related with k inact KI constants by Equation 1 implemented in GraFit ([Plapp, 1982]): kobs=(kinact I) / (KI)+I) (1)

Sa-DHQ1 [4] = biological target: T2, Sa-DHQ1 (Staphylococcus aureus, UniProt Q6GII7); assay: as above; type: biochemical
T2 construct: made in house
Description: as §1, §2, §3

St-DHQ1 [5] = biological target: T1, St-DHQ1; assay: Reversible competitive inhibition assay (initial rates, IC50); type: biochemical; settings: substrate 14 µM, PPB 50 mM, pH 7.2, 25°C
Description: as §1, §2
(§4) IC50 values were determined in duplicate by measuring the initial rates at fixed enzyme and substrate concentrations (14 µM) in the absence and in the presence of various compounds concentrations, which was adjusted to the Equation 2 implemented in GraFit: y=Emax / 1+(IC50 / x)^n (2)
(§5) were y is the observed effect at inhibitor concentration x, Emax corresponds to the maximum effect, IC50 is the concentration at which a 50% […] is obtained, and n is the slope of the curve.

Sa-DHQ1 [6] = biological target: T2, Sa-DHQ1; assay: as above; type: biochemical; settings: substrate 14 µM, PPB 50 mM, pH 7.2, 25°C
Description: as §1, §2, §4, §5

St-DHQ1 [7] = biological target: T1, St-DHQ1; assay: DHQ1 assay, kinetic parameters of the substrate; type: biochemical; settings: PPB 50 mM, pH 7.2, 25°C
Description: as §2

Sa-DHQ1 [8] = biological target: T2, Sa-DHQ1; assay: DHQ1 assay, kinetic parameters of the substrate; type: biochemical; settings: PPB 50 mM, pH 7.2, 25°C
Description: as §2

[9] = PPB 50 mM, pH 7.2, 25°C, time-dependent irreversible inhibition

T2 sequence (Q6GII7 whole entry): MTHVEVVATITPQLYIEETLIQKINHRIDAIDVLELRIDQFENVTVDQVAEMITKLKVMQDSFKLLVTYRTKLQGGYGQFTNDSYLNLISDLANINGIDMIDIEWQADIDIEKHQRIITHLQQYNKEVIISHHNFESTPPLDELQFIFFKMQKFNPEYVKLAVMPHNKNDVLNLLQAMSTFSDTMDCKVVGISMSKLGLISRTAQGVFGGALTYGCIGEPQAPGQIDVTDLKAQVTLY

Row | SMILES | covalent modification of enzyme (MALDI) (St-DHQ1 [2]) | type of inhibition (St-DHQ1 [3]) | type of inhibition (Sa-DHQ1 [4]) | IC50 (St-DHQ1 [5]) [µM] | IC50 (Sa-DHQ1 [6]) [µM] | further results
1 | O=C(O)[C@]1(O)C[C@@H](O)[C@@H](O)[C@H](O)C1 [(–)-quinic acid (9), (–)-quinic acid] | – | – | – | – | – | covalent adduct formation with the enzyme [1]: does not form a covalent adduct
2 | N[C@@H]1C[C@@](O)(C(=O)O)C[C@@H](O)[C@@H]1O [Compound 7, (1S,3R,4R,5R)-3-amino-1,4,5-trihydroxycyclohexane-1-carboxylic acid] | No modifications | reversible competitive inhibitors | reversible competitive inhibitors | 528 ± 33 | 482 ± 19 | –
3 | O=C(O)[C@@]1(O)C[C@@H](O)[C@H](O)[C@@H]2O[C@@H]21 [Compound 8, (1S,2R,4R,5S,6S)-2,4,5-trihydroxy-7-oxabicyclo[4.1.0]heptane-2-carboxylic acid] | No modifications | reversible competitive inhibitors | reversible competitive inhibitors | > 2000 | > 2000 | –
4 | O=C(O)[C@@]1(O)C[C@@H](O)[C@H](O)[C@H](NO)C1 [Compound 6, (1S,3R,4R,5R)-1,3,4-trihydroxy-5-hydroxylaminocyclohexane-1-carboxylic acid] | – | time-dependent irreversible inhibitor | time-dependent irreversible inhibitor | – | – | additional mass of covalently modified enzyme (MALDI) (St-DHQ1 [2]; St-DHQ1, ∼1:120 enzyme/ligand ratio, 24 h, 25°C): 158; k inact (St-DHQ1 [3]; PPB 50 mM, pH 7.2, 25°C): 13 ± 1 ms^−1; Ki (St-DHQ1 [3]; [9]): 130 ± 12 µM; k inact (Sa-DHQ1 [4]; PPB 50 mM, pH 7.2, 25°C): 8 ± 1 ms^−1; Ki (Sa-DHQ1 [4]; [9]): 90 ± 8 µM
5 | O=C1C[C@@](O)(C(=O)O)C[C@@H](O)[C@@H]1O [3-dehydroquinic acid] | – | – | – | – | – | K m (St-DHQ1 [7]): 24 ± 3 µM; k cat (St-DHQ1 [7]): 1.1 ± 0.1 s⁻¹; K m (Sa-DHQ1 [8]): 18 ± 3 µM; k cat (Sa-DHQ1 [8]): 255 ± 12 s⁻¹
